Source: PubChem BioAssay AID2060332 (Molecular Pharmacology Branch, DTP, NCI, 2025)

System: LG0567-F671-PDC multi-cell spheroid viability
Experiment: Anticancer human tumor LG0567-F671-PDC patient-derived lung adenocarcinoma cell line growth inhibition [IpAb]
Details: for IC50: curve of first compound; for viability, T/C: stronger effect = lower value
In short: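 Spheroids of 60% malignant cells, 25% HUVEC and 15% MSC were exposed to targeted agents combined with ipatasertib or abemaciclib. Doses started at or near clinical Cmax (10 microM when unknown) and fell in half-log steps.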

[1] = second compound 0.01 µM, first compound 0.0316 µM
[2] = second compound 0.01 µM, first compound 0.1 µM
[3] = second compound 0.01 µM, first compound 0.316 µM
[4] = second compound 0.01 µM, first compound 1 µM
[5] = second compound 0.01 µM, first compound 3.16 µM
[6] = second compound 0.01 µM, first compound 10 µM
[7] = second compound 0.0316 µM, first compound 0.0316 µM
[8] = second compound 0.0316 µM, first compound 0.1 µM
[9] = second compound 0.0316 µM, first compound 0.316 µM
[10] = second compound 0.0316 µM, first compound 1 µM
[11] = second compound 0.0316 µM, first compound 3.16 µM
[12] = second compound 0.0316 µM, first compound 10 µM
[13] = second compound 0.1 µM, first compound 0.0316 µM
[14] = second compound 0.1 µM, first compound 0.1 µM
[15] = second compound 0.1 µM, first compound 0.316 µM
[16] = second compound 0.1 µM, first compound 1 µM
[17] = second compound 0.1 µM, first compound 3.16 µM
[18] = second compound 0.1 µM, first compound 10 µM
[19] = second compound 0.316 µM, first compound 0.0316 µM
[20] = second compound 0.316 µM, first compound 0.1 µM
[21] = second compound 0.316 µM, first compound 0.316 µM
[22] = second compound 0.316 µM, first compound 1 µM
[23] = second compound 0.316 µM, first compound 3.16 µM
[24] = second compound 0.316 µM, first compound 10 µM
[25] = second compound 1 µM, first compound 0.0316 µM
[26] = second compound 1 µM, first compound 0.1 µM
[27] = second compound 1 µM, first compound 0.316 µM
[28] = second compound 1 µM, first compound 1 µM
[29] = second compound 1 µM, first compound 3.16 µM
[30] = second compound 1 µM, first compound 10 µM
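Further: viability read after 7 days of drug exposure.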
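Wherever viability, T/C is given: 100% = DMSO vehicle control luminescence.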

C=CCn1c(=O)c2cnc(Nc3ccc(N4CCN(C)CC4)cc3)nc2n1-c1cccc(C(C)(C)O)n1 + CCN1CCN(Cc2ccc(Nc3ncc(F)c(-c4cc(F)c5nc(C)n(C(C)C)c5c4)n3)nc2)CC1
IC50 (second compound 0.01 µM): 0.8 µM | IC50 (second compound 0.0316 µM): 0.31 µM | IC50 (second compound 0.1 µM): 0.518 µM | IC50 (second compound 0.316 µM): 0.24 µM | IC50 (second compound 1 µM): 0.359 µM | viability, T/C [1]: 95% | viability, T/C [2]: 68.1% | viability, T/C [3]: 66.8% | viability, T/C [4]: 48.4% | viability, T/C [5]: 31.9% | viability, T/C [6]: 32% | viability, T/C [7]: 94.2% | viability, T/C [8]: 52.9% | viability, T/C [9]: 54.9% | viability, T/C [10]: 48.5% | viability, T/C [11]: 36.4% | viability, T/C [12]: 23.8% | viability, T/C [13]: 64.2% | viability, T/C [14]: 50.4% | viability, T/C [15]: 51.2% | viability, T/C [16]: 51.1% | viability, T/C [17]: 35% | viability, T/C [18]: 23.8% | viability, T/C [19]: 57.8% | viability, T/C [20]: 52.9% | viability, T/C [21]: 46.9% | viability, T/C [22]: 45.6% | viability, T/C [23]: 35.8% | viability, T/C [24]: 27.9% | viability, T/C [25]: 63.8% | viability, T/C [26]: 59.8% | viability, T/C [27]: 49.2% | viability, T/C [28]: 43.9% | viability, T/C [29]: 33.9% | viability, T/C [30]: 29.4%

CC(C)n1nc(-c2ccc3oc(N)nc3c2)c2c(N)ncnc21 + CCN1CCN(Cc2ccc(Nc3ncc(F)c(-c4cc(F)c5nc(C)n(C(C)C)c5c4)n3)nc2)CC1
IC50 (second compound 0.01 µM): 0.0305 µM | IC50 (second compound 0.0316 µM): 0.0116 µM | IC50 (second compound 0.1 µM): 0.0135 µM | IC50 (second compound 0.316 µM): 0.00693 µM | IC50 (second compound 1 µM): 0.00659 µM | viability, T/C (second compound 0.01 µM, first compound 0.000316 µM): 111% | viability, T/C (second compound 0.01 µM, first compound 0.001 µM): 88.4% | viability, T/C (second compound 0.01 µM, first compound 0.00316 µM): 65.4% | viability, T/C (second compound 0.01 µM, first compound 0.01 µM): 70.2% | viability, T/C [1]: 50% | viability, T/C [2]: 38.6% | viability, T/C (second compound 0.0316 µM, first compound 0.000316 µM): 86.8% | viability, T/C (second compound 0.0316 µM, first compound 0.001 µM): 80.8% | viability, T/C (second compound 0.0316 µM, first compound 0.00316 µM): 73.8% | viability, T/C (second compound 0.0316 µM, first compound 0.01 µM): 52.9% | viability, T/C [7]: 34.9% | viability, T/C [8]: 35% | viability, T/C (second compound 0.1 µM, first compound 0.000316 µM): 65.5% | viability, T/C (second compound 0.1 µM, first compound 0.001 µM): 70.2% | viability, T/C (second compound 0.1 µM, first compound 0.00316 µM): 47.8% | viability, T/C (second compound 0.1 µM, first compound 0.01 µM): 55.6% | viability, T/C [13]: 46.7% | viability, T/C [14]: 29.1% | viability, T/C (second compound 0.316 µM, first compound 0.000316 µM): 66.4% | viability, T/C (second compound 0.316 µM, first compound 0.001 µM): 53.2% | viability, T/C (second compound 0.316 µM, first compound 0.00316 µM): 69.8% | viability, T/C (second compound 0.316 µM, first compound 0.01 µM): 38.5% | viability, T/C [19]: 39.6% | viability, T/C [20]: 36.8% | viability, T/C (second compound 1 µM, first compound 0.000316 µM): 57.1% | viability, T/C (second compound 1 µM, first compound 0.001 µM): 61.7% | viability, T/C (second compound 1 µM, first compound 0.00316 µM): 56.3% | viability, T/C (second compound 1 µM, first compound 0.01 µM): 40.9% | viability, T/C [25]: 43.6% | viability, T/C [26]: 27.9%

CC1(C)CCC(CN2CCN(c3ccc(C(=O)NS(=O)(=O)c4ccc(NCC5CCOCC5)c([N+](=O)[O-])c4)c(Oc4cnc5[nH]ccc5c4)c3)CC2)=C(c2ccc(Cl)cc2)C1 + CCN1CCN(Cc2ccc(Nc3ncc(F)c(-c4cc(F)c5nc(C)n(C(C)C)c5c4)n3)nc2)CC1
IC50 (second compound 0.01 µM): 7.19 µM | IC50 (second compound 0.0316 µM): 5.8 µM | IC50 (second compound 0.1 µM): 5.91 µM | IC50 (second compound 0.316 µM): 4.88 µM | IC50 (second compound 1 µM): 4.69 µM | viability, T/C [1]: 96.5% | viability, T/C [2]: 123% | viability, T/C [3]: 106% | viability, T/C [4]: 105% | viability, T/C [5]: 119% | viability, T/C [6]: 25.9% | viability, T/C [7]: 63.6% | viability, T/C [8]: 95.8% | viability, T/C [9]: 87.1% | viability, T/C [10]: 72.2% | viability, T/C [11]: 83.2% | viability, T/C [12]: 22.6% | viability, T/C [13]: 80.5% | viability, T/C [14]: 86.9% | viability, T/C [15]: 83.2% | viability, T/C [16]: 84.5% | viability, T/C [17]: 83% | viability, T/C [18]: 22.2% | viability, T/C [19]: 69.6% | viability, T/C [20]: 76.1% | viability, T/C [21]: 80.8% | viability, T/C [22]: 76.9% | viability, T/C [23]: 73.3% | viability, T/C [24]: 11.4% | viability, T/C [25]: 69.6% | viability, T/C [26]: 80.3% | viability, T/C [27]: 64% | viability, T/C [28]: 68.8% | viability, T/C [29]: 67.1% | viability, T/C [30]: 17.5%

CCCS(=O)(=O)Nc1ccc(F)c(C(=O)c2c[nH]c3ncc(-c4ccc(Cl)cc4)cc23)c1F + CCN1CCN(Cc2ccc(Nc3ncc(F)c(-c4cc(F)c5nc(C)n(C(C)C)c5c4)n3)nc2)CC1
IC50 (second compound 0.01 µM): > 10 µM | IC50 (second compound 0.0316 µM): > 10 µM | IC50 (second compound 0.1 µM): > 10 µM | IC50 (second compound 0.316 µM): > 10 µM | IC50 (second compound 1 µM): > 10 µM | viability, T/C [1]: 104% | viability, T/C [2]: 140% | viability, T/C [3]: 112% | viability, T/C [4]: 145% | viability, T/C [5]: 169% | viability, T/C [6]: 168% | viability, T/C [7]: 93.3% | viability, T/C [8]: 105% | viability, T/C [9]: 140% | viability, T/C [10]: 121% | viability, T/C [11]: 156% | viability, T/C [12]: 115% | viability, T/C [13]: 77.4% | viability, T/C [14]: 98.8% | viability, T/C [15]: 91.6% | viability, T/C [16]: 113% | viability, T/C [17]: 154% | viability, T/C [18]: 92.1% | viability, T/C [19]: 68.8% | viability, T/C [20]: 86.3% | viability, T/C [21]: 91.7% | viability, T/C [22]: 108% | viability, T/C [23]: 80.1% | viability, T/C [24]: 55.4% | viability, T/C [25]: 66.9% | viability, T/C [26]: 88.3% | viability, T/C [27]: 73.7% | viability, T/C [28]: 70.4% | viability, T/C [29]: 76.9% | viability, T/C [30]: 65.1%

Cn1cnc2c(F)c(Nc3ccc(Br)cc3Cl)c(C(=O)NOCCO)cc21 + CCN1CCN(Cc2ccc(Nc3ncc(F)c(-c4cc(F)c5nc(C)n(C(C)C)c5c4)n3)nc2)CC1
IC50 (second compound 0.01 µM): 0.0191 µM | IC50 (second compound 0.0316 µM): 0.0119 µM | IC50 (second compound 0.1 µM): < 0.00949 µM | IC50 (second compound 0.316 µM): < 0.00949 µM | IC50 (second compound 1 µM): < 0.00949 µM | viability, T/C (second compound 0.01 µM, first compound 0.00949 µM): 55% | viability, T/C (second compound 0.01 µM, first compound 0.03 µM): 48% | viability, T/C (second compound 0.01 µM, first compound 0.0949 µM): 28.8% | viability, T/C (second compound 0.01 µM, first compound 0.3 µM): 22.5% | viability, T/C (second compound 0.01 µM, first compound 0.949 µM): 19.9% | viability, T/C (second compound 0.01 µM, first compound 3 µM): 13.4% | viability, T/C (second compound 0.0316 µM, first compound 0.00949 µM): 53.5% | viability, T/C (second compound 0.0316 µM, first compound 0.03 µM): 36.4% | viability, T/C (second compound 0.0316 µM, first compound 0.0949 µM): 27.9% | viability, T/C (second compound 0.0316 µM, first compound 0.3 µM): 17.3% | viability, T/C (second compound 0.0316 µM, first compound 0.949 µM): 20.2% | viability, T/C (second compound 0.0316 µM, first compound 3 µM): 13.5% | viability, T/C (second compound 0.1 µM, first compound 0.00949 µM): 47.5% | viability, T/C (second compound 0.1 µM, first compound 0.03 µM): 38.5% | viability, T/C (second compound 0.1 µM, first compound 0.0949 µM): 28% | viability, T/C (second compound 0.1 µM, first compound 0.3 µM): 17.4% | viability, T/C (second compound 0.1 µM, first compound 0.949 µM): 17% | viability, T/C (second compound 0.1 µM, first compound 3 µM): 10.6% | viability, T/C (second compound 0.316 µM, first compound 0.00949 µM): 48.8% | viability, T/C (second compound 0.316 µM, first compound 0.03 µM): 29.9% | viability, T/C (second compound 0.316 µM, first compound 0.0949 µM): 33.6% | viability, T/C (second compound 0.316 µM, first compound 0.3 µM): 24.7% | viability, T/C (second compound 0.316 µM, first compound 0.949 µM): 17.4% | viability, T/C (second compound 0.316 µM, first compound 3 µM): 11.4% | viability, T/C (second compound 1 µM, first compound 0.00949 µM): 45% | viability, T/C (second compound 1 µM, first compound 0.03 µM): 35.2% | viability, T/C (second compound 1 µM, first compound 0.0949 µM): 29.6% | viability, T/C (second compound 1 µM, first compound 0.3 µM): 27.5% | viability, T/C (second compound 1 µM, first compound 0.949 µM): 18.6% | viability, T/C (second compound 1 µM, first compound 3 µM): 11.3%
